Reference: PMC3664202 (Bioorganic & medicinal chemistry letters, 2012)

Legend:
[1] = system: psoriasis and other inflammatory skin conditions; conditions: small clinical trial; cited from earlier work
[2] = molecular target: Kv1.3 channels (Mus musculus, UniProt P16390); test: Kv1.3 blockade, manual whole-cell patch-clamp; format: cell-based; conditions: for decrease in Kv1.3 blocking activity/potency relative to diphenoxylate: fold less potent than diphenoxylate
[3] = system: delayed type hypersensitivity (DTH) and allergic contact dermatitis (ACD); conditions: Lewis rats; dosed orally, by i.p. injection or topically; cited from earlier work
[4] = cited from earlier work
[5] = system: adoptive transfer and chronic relapsing experimental autoimmune encephalomyelitis (EAE); conditions: rats; cited from earlier work

Chain of Kv1.3 channels (P16390 whole entry): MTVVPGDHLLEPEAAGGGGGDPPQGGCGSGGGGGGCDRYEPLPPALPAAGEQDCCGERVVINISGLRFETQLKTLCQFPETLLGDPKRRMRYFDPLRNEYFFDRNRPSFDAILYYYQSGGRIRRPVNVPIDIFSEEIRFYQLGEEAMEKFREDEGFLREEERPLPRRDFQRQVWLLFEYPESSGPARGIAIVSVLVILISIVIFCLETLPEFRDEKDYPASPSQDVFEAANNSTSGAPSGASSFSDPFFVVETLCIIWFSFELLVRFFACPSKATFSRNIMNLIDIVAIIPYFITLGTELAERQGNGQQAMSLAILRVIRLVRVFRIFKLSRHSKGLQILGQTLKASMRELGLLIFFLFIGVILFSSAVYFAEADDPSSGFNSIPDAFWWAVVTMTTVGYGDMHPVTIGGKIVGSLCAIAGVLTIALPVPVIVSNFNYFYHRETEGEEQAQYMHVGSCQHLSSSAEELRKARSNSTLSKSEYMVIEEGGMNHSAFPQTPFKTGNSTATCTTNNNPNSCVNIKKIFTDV

Question: Which “clinical effect on psoriasis and other inflammatory skin conditions” value [1] does the source give for `CCOC(=O)C1(c2ccccc2)CCN(CCC(C#N)(c2ccccc2)c2ccccc2)CC1` [Compound 1, Diphenoxylate] here?
Answer: successfully treat psoriasis and other inflammatory skin conditions

Question: For `CCOC(=O)C1CCN(CCC(C#N)(c2ccccc2)c2ccccc2)CC1` [Compound 6, Ethyl 1-(3-cyano-3,3-diphenylpropyl)piperidine-4-carboxylate], which “decrease in Kv1.3 blocking activity/potency relative to diphenoxylate” value [2] is on record?
Answer: ~ 50 fold

Question: Which “more active than diphenoxylate (Kv1.3 blockade)” value ([2]; fold more active than diphenoxylate) does the source give for `CCOC(=O)C1(c2ccccc2)CCN(CCC(c2ccccc2)c2ccccc2)CC1` [Compound 7, Ethyl 1-(3,3-diphenylpropyl)-4-phenylpiperidine-4-carboxylate] here?
Answer: 6 fold

Question: With `N#CC(CCN1CCCCC1)(c1ccccc1)c1ccccc1` [Compound 8, 2,2-diphenyl-4-(piperidin-1-yl)butanenitrile] as the molecule, how does the “decrease in Kv1.3 blocking activity/potency relative to diphenoxylate” value [2] read?
Answer: 4 fold

Question: Which IC50 [2] does the source give for `N#CC(CCN1CCCC(O)C1)(c1ccccc1)c1ccccc1` (stereo not shown) [Compound 15, 4-(3-hydroxypiperidin-1-yl)-2,2-diphenylbutanenitrile] here?
Answer: > 100 µM

Question: Which IC50 [2] does the source give for `OC1CCN(CCCc2ccccc2)CC1` [Compound 17, 1-(3-phenylpropyl)piperidin-4-ol] here?
Answer: > 100 µM

Question: What about the “Kv1.3 blocking activity (in words)” value ([2]; removal of a cyano group plus a phenyl ring from 14) of the same molecule?
Answer: no activity

Question: What does the source list for `O=c1ccc2c(OCCCCOc3ccccc3)c3ccoc3cc2o1` [PAP-1]?
Answer: effect on DTH and ACD [3]: suppress delayed type hypersensitivity (DTH) and allergic contact dermatitis (ACD); oral availability [4]: 25%

Question: With ShK as the molecule, how does the “effect on EAE” value [5] read?
Answer: able to treat both adoptive transfer and chronic relapsing experimental autoimmune encephalomyelitis (EAE)
